Data as given in patent EP0866684B1, “COSMETIC HAIR TREATMENT METHOD” (UNILEVER PLC, priority 1995, dated 1997).
Like-named read-outs stand apart in the source and are kept apart here.

Tests used:
[1] = test system: isolated human hair follicles; test: Diameter of hair fibres grown in vitro, Laser Scan Micrometer (Example 4); assay type: cell-based; conditions: range of cysteine concentrations, 7-11 days of culture
Protocol: Follicles were isolated as described in Example 1 and placed into culture in supplemented Williams E medium containing a range of concentrations of cysteine. Following several days of culture(7-11), follicles were removed from the medium and the fibres isolated from the follicles as described above. The diameter of the fibres was measured using a modified Laser Scan Micrometer (Mitotoyu) coupled to a moving jig which was capable of rotating the fibre through 180° and moving the fibre through the laser beam at intervals of 0.2mm. Each isolated fibre contained a small part which was formally grown in vivo, the diameter of this "in vivo" end of the fibre. The diameter of the fibre grown in vitro was measured at intervals of 0.2mm along the fibre. For estimation of the effect of different media concentrations of cysteine on diameter, the average in vitro diameter was compared across the treatment concentrations of cysteine and the ratio of in vitro diameter to in vivo diameter was calculated.

[2] = test system: isolated human hair follicles; test: Growth of follicles moved from lower to higher cysteine medium (Example 3); assay type: cell-based; conditions: 2 days in medium with lower cysteine, then moved to medium with a higher amount of cysteine
Protocol: Human hair follicles were isolated as described in Example 1 and placed into culture in Williams E medium formulated to contain a lower concentration of cysteine. Follicles were cultured for 2 days in this medium then transferred to medium containing a higher amount of cysteine.

[3] = test system: isolated human hair follicles; test: Incorporation of radiolabelled cysteine into hair fibre in vitro (Example 2); assay type: cell-based; conditions: 5 hours with a range of cysteine concentrations, partly radiolabelled; 48 hours chase; liquid scintillation counting of the fibre
Protocol: Follicles were isolated as described in Example 1 and cultured for 5 hours in the presence of a range of concentrations of cysteine, a small proportion of which was radiolabelled. After 5 hours the follicles were transferred to normal supplemented Williams E medium to "chase" the radioactivity into the fibre being grown in the follicle, for 48 hours. The hair fibre was isolated from each follicle using a combination of detergent and enzyme and the 'naked' fibre dissolved and subjected to liquid scintillation counting.

sheep = conditions: cited from earlier work; for sulphur content of the "new" wool / wool growth: abomasal or intravenous infusion, sheep consuming roughage-based diets; for increase in fibre diameter: cysteine infusion, sheep wool
[4] = test system: isolated human hair follicles; test: Fibre diameter after change from lower to higher cysteine concentration (Example 5); assay type: cell-based
Protocol: Follicles were isolated as described in Example 1 and cultured as described in Example 3. Fibres were isolated and diameter measured as described in Example 4. […] The change in diameter was calculated by taking, firstly the diameter at the narrowest part of the fibre for each of the three treatments and secondly the diameter of the fibre during growth after addition of cysteine - deemed to be the in vitro diameter, and taking the ratio of these to the in vivo diameter.

[5] = test system: isolated human hair follicles; test: In vitro hair follicle growth test: growth at varied cysteine concentration (Example 1); assay type: cell-based; conditions: concentration of cysteine + cystine (half cystine) varied in supplemented Williams E medium
Protocol: The effect of cysteine on hair diameter was assessed using an in vitro test which uses isolated human hair follicles in a culture medium.
Human hair follicles were isolated from scalp skin by the methods described by Philpott et al J Cell Science 97 463-471, 1990. […] Follicles isolated in this way were cultured as described by Westgate et al Br. J. Dermatol 129 372-379, 1993 in a completely defined culture medium called Williams E medium (obtainable from ICN FLOW), the latter supplemented with antibiotics, glutamine, hydrocortisone and Insulin. In this example the concentration of cysteine + cystine (referred to as half cystine) was varied and the daily rate of growth of follicles measured.

Compound | diameter of the fibres [1] | growth rate [2] | Incorporation of cysteine into human hair in vitro [3] | sulphur content of the "new" wool (sheep) | wool growth (sheep) | increase in fibre diameter (sheep; typical value) | increase in fibre diameter (sheep) | diameter of the fibre ([4]; after transfer to the higher concentration of cysteine (495.0µM)) | change in diameter (ratio to the in vivo diameter) ([4]; follicles where the cysteine concentration was reversed) | diameter of the fibre ([4]; lower concentration of cysteine (9.0µM), compared with the in vivo diameter) | daily rate of growth of follicles [5]
N[C@@H](CS)C(=O)O [cysteine] | dependent on the concentration of cysteine available to the follicles | increasing their growth rate | concentration dependent | increased | stimulates wool growth | 1-3 µm | 5-10% | increased again | the fibre diameter was similarly reversed | decreased from the in vivo diameter | growth increases with cysteine concentration in the medium
CSCC[C@H](N)C(=O)O [methionine, reference compound] | – | – | – | increased | stimulates wool growth | – | – | – | – | – | –
